Measured values: PubChem BioAssay (NCI)
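Cultured in 96-well plates, cells were exposed to test compound for 48 hours across five concentrations. The concentration for 50% growth inhibition is given as GI50. The concentration for full growth arrest is given as TGI.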

What was measured:
Test in all cases: NCI-60 cell line screen, 48 h
786-0 renal = tested on: 786-0 renal
A498 renal = tested on: A498 renal
A549 NSCLC = tested on: A549 NSCLC
ACHN renal = tested on: ACHN renal
BT-549 breast = tested on: BT-549 breast
CAKI-1 renal = tested on: CAKI-1 renal
COLO 205 colon = tested on: COLO 205 colon
DU-145 prostate = tested on: DU-145 prostate
EKVX NSCLC = tested on: EKVX NSCLC
HCC-2998 colon = tested on: HCC-2998 colon
HCT-116 colon = tested on: HCT-116 colon
HCT-15 colon = tested on: HCT-15 colon
HL-60(TB) leukemia = tested on: HL-60(TB) leukemia
HOP-62 NSCLC = tested on: HOP-62 NSCLC
HOP-92 NSCLC = tested on: HOP-92 NSCLC
HS 578T breast = tested on: HS 578T breast
HT29 colon = tested on: HT29 colon
IGROV1 ovarian = tested on: IGROV1 ovarian
K-562 leukemia = tested on: K-562 leukemia
KM12 colon = tested on: KM12 colon
LOX IMVI melanoma = tested on: LOX IMVI melanoma
M14 melanoma = tested on: M14 melanoma
MCF7 breast = tested on: MCF7 breast
MDA-MB-231 breast = tested on: MDA-MB-231 breast
MDA-MB-435 = tested on: MDA-MB-435
MOLT-4 leukemia = tested on: MOLT-4 leukemia
NCI-H226 lung = tested on: NCI-H226 lung
NCI-H23 lung = tested on: NCI-H23 lung
NCI-H460 lung = tested on: NCI-H460 lung
NCI-H522 lung = tested on: NCI-H522 lung
NCI/ADR-RES ovarian = tested on: NCI/ADR-RES ovarian
OVCAR-3 ovarian = tested on: OVCAR-3 ovarian
OVCAR-4 ovarian = tested on: OVCAR-4 ovarian
OVCAR-5 ovarian = tested on: OVCAR-5 ovarian
OVCAR-8 ovarian = tested on: OVCAR-8 ovarian
PC-3 prostate = tested on: PC-3 prostate
RPMI-8226 leukemia = tested on: RPMI-8226 leukemia
RXF 393 renal = tested on: RXF 393 renal
SF-268 CNS = tested on: SF-268 CNS
SF-295 CNS = tested on: SF-295 CNS
SF-539 CNS = tested on: SF-539 CNS
SK-MEL-2 melanoma = tested on: SK-MEL-2 melanoma
SK-MEL-28 melanoma = tested on: SK-MEL-28 melanoma
SK-MEL-5 melanoma = tested on: SK-MEL-5 melanoma
SK-OV-3 ovarian = tested on: SK-OV-3 ovarian
SN12C renal = tested on: SN12C renal
SNB-19 CNS = tested on: SNB-19 CNS
SNB-75 CNS = tested on: SNB-75 CNS
SR leukemia = tested on: SR leukemia
SW-620 colon = tested on: SW-620 colon
T-47D breast = tested on: T-47D breast
TK-10 renal = tested on: TK-10 renal
U251 CNS = tested on: U251 CNS
UACC-257 melanoma = tested on: UACC-257 melanoma
UACC-62 melanoma = tested on: UACC-62 melanoma
UO-31 renal = tested on: UO-31 renal

CCOC(=O)C(=Cc1cccc(Cl)c1)C(=O)OCC
GI50 (786-0 renal): 1930 nM
TGI (786-0 renal): 4.26 µM
GI50 (A498 renal): 11.9 µM
TGI (A498 renal): 24.2 µM
GI50 (A549 NSCLC): 11.4 µM
TGI (A549 NSCLC): 24.6 µM
GI50 (ACHN renal): 1890 nM
TGI (ACHN renal): 4.23 µM
GI50 (BT-549 breast): 2060 nM
TGI (BT-549 breast): 5.07 µM
GI50 (CAKI-1 renal): 2190 nM
TGI (CAKI-1 renal): 5.45 µM
GI50 (COLO 205 colon): 2210 nM
TGI (COLO 205 colon): 4.42 µM
GI50 (DU-145 prostate): 2210 nM
TGI (DU-145 prostate): 5.4 µM
GI50 (EKVX NSCLC): 3.75 µM
TGI (EKVX NSCLC): 14.3 µM
GI50 (HCC-2998 colon): 1790 nM
TGI (HCC-2998 colon): 3.24 µM
GI50 (HCT-116 colon): 1820 nM
TGI (HCT-116 colon): 3.83 µM
GI50 (HCT-15 colon): 1960 nM
TGI (HCT-15 colon): 5.27 µM
GI50 (HL-60(TB) leukemia): 2180 nM
TGI (HL-60(TB) leukemia): 5.65 µM
GI50 (HOP-62 NSCLC): 2690 nM
TGI (HOP-62 NSCLC): 7.58 µM
GI50 (HOP-92 NSCLC): 1740 nM
TGI (HOP-92 NSCLC): 4.49 µM
GI50 (HS 578T breast): 4.29 µM
TGI (HS 578T breast): 29.8 µM
GI50 (HT29 colon): 2390 nM
TGI (HT29 colon): 5.57 µM
GI50 (IGROV1 ovarian): 2400 nM
TGI (IGROV1 ovarian): 7.85 µM
GI50 (K-562 leukemia): 3.18 µM
TGI (K-562 leukemia): > 100 µM
GI50 (KM12 colon): 2350 nM
TGI (KM12 colon): 5.8 µM
GI50 (LOX IMVI melanoma): 1650 nM
TGI (LOX IMVI melanoma): 3.12 µM
GI50 (M14 melanoma): 2000 nM
TGI (M14 melanoma): 4.56 µM
GI50 (MCF7 breast): 2120 nM
TGI (MCF7 breast): 8.11 µM
GI50 (MDA-MB-231 breast): 2350 nM
TGI (MDA-MB-231 breast): 5.04 µM
GI50 (MDA-MB-435): 2070 nM
TGI (MDA-MB-435): 5.04 µM
GI50 (MOLT-4 leukemia): 3.08 µM
TGI (MOLT-4 leukemia): 9.81 µM
GI50 (NCI-H226 lung): 2490 nM
TGI (NCI-H226 lung): 6.18 µM
GI50 (NCI-H23 lung): 2320 nM
TGI (NCI-H23 lung): 6.45 µM
GI50 (NCI-H460 lung): 3.71 µM
TGI (NCI-H460 lung): 12.6 µM
GI50 (NCI-H522 lung): 1530 nM
TGI (NCI-H522 lung): 3.21 µM
GI50 (NCI/ADR-RES ovarian): 3.3 µM
TGI (NCI/ADR-RES ovarian): 16.9 µM
GI50 (OVCAR-3 ovarian): 1860 nM
TGI (OVCAR-3 ovarian): 3.6 µM
GI50 (OVCAR-4 ovarian): 2660 nM
TGI (OVCAR-4 ovarian): 8.87 µM
GI50 (OVCAR-5 ovarian): 1800 nM
TGI (OVCAR-5 ovarian): 3.54 µM
GI50 (OVCAR-8 ovarian): 3.37 µM
TGI (OVCAR-8 ovarian): 12.8 µM
GI50 (PC-3 prostate): 2050 nM
TGI (PC-3 prostate): 4.21 µM
GI50 (RPMI-8226 leukemia): 2100 nM
TGI (RPMI-8226 leukemia): 5.32 µM
GI50 (RXF 393 renal): 1910 nM
TGI (RXF 393 renal): 3.53 µM
GI50 (SF-268 CNS): 2540 nM
TGI (SF-268 CNS): 7.96 µM
GI50 (SF-295 CNS): 3.61 µM
TGI (SF-295 CNS): 13.4 µM
GI50 (SF-539 CNS): 1660 nM
TGI (SF-539 CNS): 3.14 µM
GI50 (SK-MEL-2 melanoma): 2100 nM
TGI (SK-MEL-2 melanoma): 4.24 µM
GI50 (SK-MEL-28 melanoma): 1620 nM
TGI (SK-MEL-28 melanoma): 3.26 µM
GI50 (SK-MEL-5 melanoma): 1830 nM
TGI (SK-MEL-5 melanoma): 3.35 µM
GI50 (SK-OV-3 ovarian): 10.6 µM
TGI (SK-OV-3 ovarian): 22.4 µM
GI50 (SN12C renal): 1650 nM
TGI (SN12C renal): 3.54 µM
GI50 (SNB-19 CNS): 2370 nM
TGI (SNB-19 CNS): 6.66 µM
GI50 (SNB-75 CNS): 2120 nM
TGI (SNB-75 CNS): 7.8 µM
GI50 (SR leukemia): 1550 nM
TGI (SR leukemia): > 100 µM
GI50 (SW-620 colon): 2030 nM
TGI (SW-620 colon): 4.1 µM
GI50 (T-47D breast): 1780 nM
TGI (T-47D breast): 4.26 µM
GI50 (TK-10 renal): 2460 nM
TGI (TK-10 renal): 6.08 µM
GI50 (U251 CNS): 4.47 µM
TGI (U251 CNS): 15.9 µM
GI50 (UACC-257 melanoma): 5.05 µM
TGI (UACC-257 melanoma): 18 µM
GI50 (UACC-62 melanoma): 1650 nM
TGI (UACC-62 melanoma): 3.58 µM
GI50 (UO-31 renal): 1840 nM
TGI (UO-31 renal): 4.12 µM
